In US12509447B2, “Small molecule compound” (Technoderma Medicines Pte Ltd, priority 2019, dated 2025):

Assays:
Type in all cases: biochemical
[1] = molecular target: JAK2 (Homo sapiens, UniProt O60674); experiment: Inhibition of JAK kinase activity, EZ Reader microfluidic phosphorylation of peptide substrate: JAK2; conditions: JAK2 kinase 1 nM; highest final concentration 10 μM, 1:3 serial dilution, 8 points, duplicates
Description: (§1) EZ Reader available from PerkinElmer can be used for detecting the phosphorylation of polypeptide substrates catalyzed by kinases. This device is based on microfluidic separation technology, and can directly detect fluorescence labeled substrates and products. The separation step is achieved in a microfluidic chip by controlling the pressure and electric field intensity. In a kinase experiment, the product conversion rate is generally controlled at 20-30%. This biological assay method is used for identifying the inhibitory effect of the compounds on JAK.
(§2) The compound powder was dissolved in DMSO, sealed and stored in a refrigerator at −20° C. The in-house compound Ref1 was used as a positive control for testing of JAK1, JAK2 and Tyk2, and Ref2 was used as a positive control for testing of JAK3.
(§3) • S2.1. 1M HEPES buffer: 0.5M HEPES free acid and 0.5M HEPES sodium salt are weighed, added into ultrapure water for dissolution, brought to a desired volume, filtered and stored in a refrigerator at 4° C. • S2.2. 40 mM ATP solution: dissolved in a 50 mM HEPES buffer solution, prepared into 40 mM, aliquoted, and cryopreserved in a refrigerator at −20° C. • S2.3. 0.5% Tween 20: 100% Tween 20 was diluted with ultrapure water, and stored in a refrigerator at 4° C. • S2.4. 35% bovine serum albumin: a 35% bovine serum albumin solution is prepared in ultrapure water, aliquoted, and stored in a refrigerator at −20° C. • S2.5. 1M dithiothreitol solution: dithiothreitol is formulated into a 1M solution with ultrapure water, aliquoted, and stored in a refrigerator at −20° C. • S2.6. 0.5 mM Jaktide Peptide substrate solution: it is dissolved in 50 mM HEPES to 0.5 mM, aliquoted, and stored in a refrigerator at −20° C. • S2.7. 0.5 mM IRStide Peptide substrate solution: it is dissolved in 50 mM HEPES to 0.5 mM, aliquoted, and stored in a refrigerator at −20° C. • S2.8. Assay Buffer: 20 mM HEPES buffer, pH 7.4, 10 mM magnesium chloride, 0.01% bovine serum albumin BSA, 0.0005% Tween-20, and a 1 mM dithiothreitol solution. • S2.9. Stop Buffer: 180 mM HEPES buffer, 20 mM ethylenediamine tetraacetic acid (EDTA), and 0.2% Coating Reagent 3. • S2.10. Separation Buffer: 100 mM HEPES buffer, 10 mM EDTA, 0.0005% Tween 20, 0.1% Coating Reagent 3, and 1% dimethyl sulfoxide. 3. Experimental Procedures • S3.1. Preparation of compound plate
(§4) The compound is dissolved in dimethyl sulfoxide to 10 mM, a certain volume is taken and diluted to 0.6 mM, 10 μl of the diluted 0.6 mM solution is taken and added into a 384 microplate or 1:3 serial dilution, with a total of 8 concentration points. • S3.2. Compound layout
(§5) • positive control (HPE1): Ref1, final concentration: 10 μM • positive control (HPE1): Ref2, final concentration: 10 μM • negative control (ZPE): DMSO, with a final concentration of 1.6% • Compound: the highest final concentration at 10 μM, 1:3 serial dilution, with 8 concentration points and in duplicates. 4. Experimental operation steps • S4.1. the experimental plate was added with 250 nl of the compound per well with ECHO, and centrifuged at 1,000 rpm for 1 minute; • S4.2. the precipitate was added with 5 μl of the experimental buffer, and shaken for several seconds to fully dissolve the compound; • S4.3. the solution was added with 5 μl of a 3× substrate solution, as well as 5 μl of a 3× kinase solution, and centrifuged at 800 rpm for 1 minute; • S4.4. The final concentrations of JAK1, JAK2, JAK3 and Tyk2 kinases in the reaction system are 20, 1, 1 and 1 nM, respectively. • S4.5. the reaction system is incubated at room temperature, wherein the incubation time of each kinase is different, and there are differences in incubation time of different batches of kinases. • S4.6. When the reaction reaches 20%-30%, the reaction system is added with 15 μl of the stop buffer to terminate the reaction, and centrifuged at 1,000 rpm for 2 minutes. • S4.7. The precipitate was placed onto a EZ Reader for plate reading. • S4.8. […]

[2] = molecular target: T1, JAK3 (Homo sapiens, UniProt P52333); experiment: Inhibition of JAK kinase activity, EZ Reader microfluidic phosphorylation of peptide substrate: JAK3; conditions: JAK3 kinase 1 nM; highest final concentration 10 μM, 1:3 serial dilution, 8 points, duplicates
T1 sequence (P52333 1-1124): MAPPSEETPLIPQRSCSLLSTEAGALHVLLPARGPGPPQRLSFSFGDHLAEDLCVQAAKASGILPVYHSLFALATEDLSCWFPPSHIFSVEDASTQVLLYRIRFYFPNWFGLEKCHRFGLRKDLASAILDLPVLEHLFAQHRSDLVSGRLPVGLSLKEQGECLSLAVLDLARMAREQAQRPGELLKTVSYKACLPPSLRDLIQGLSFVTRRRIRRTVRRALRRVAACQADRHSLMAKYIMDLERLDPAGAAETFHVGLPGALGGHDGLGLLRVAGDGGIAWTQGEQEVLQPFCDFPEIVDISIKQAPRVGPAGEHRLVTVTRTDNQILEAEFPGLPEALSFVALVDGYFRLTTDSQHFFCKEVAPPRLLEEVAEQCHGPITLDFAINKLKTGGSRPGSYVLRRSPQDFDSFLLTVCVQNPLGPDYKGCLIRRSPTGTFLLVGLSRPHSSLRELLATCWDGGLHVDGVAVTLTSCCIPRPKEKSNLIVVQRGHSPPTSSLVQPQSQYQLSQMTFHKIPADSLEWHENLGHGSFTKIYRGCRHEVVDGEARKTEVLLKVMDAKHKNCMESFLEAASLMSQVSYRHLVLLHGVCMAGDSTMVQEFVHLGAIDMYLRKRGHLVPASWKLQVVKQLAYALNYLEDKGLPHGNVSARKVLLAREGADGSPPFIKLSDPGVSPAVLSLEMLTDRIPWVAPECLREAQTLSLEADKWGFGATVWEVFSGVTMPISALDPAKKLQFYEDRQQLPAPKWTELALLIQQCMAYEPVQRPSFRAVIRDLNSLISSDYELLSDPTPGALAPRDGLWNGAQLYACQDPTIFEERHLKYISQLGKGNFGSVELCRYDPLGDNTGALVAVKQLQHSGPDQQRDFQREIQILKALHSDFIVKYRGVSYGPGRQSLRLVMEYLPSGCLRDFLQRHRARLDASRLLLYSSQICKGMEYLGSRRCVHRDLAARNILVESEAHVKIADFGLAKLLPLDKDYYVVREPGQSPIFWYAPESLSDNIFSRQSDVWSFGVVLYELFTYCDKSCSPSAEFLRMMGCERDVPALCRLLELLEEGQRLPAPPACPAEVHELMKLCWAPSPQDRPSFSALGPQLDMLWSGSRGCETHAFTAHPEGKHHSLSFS
Description: as §1, §2, §3, §4, §5

[3] = molecular target: JAK1 (Homo sapiens, UniProt P23458); experiment: Inhibition of JAK kinase activity, EZ Reader microfluidic phosphorylation of peptide substrate: JAK1; conditions: JAK1 kinase 20 nM; highest final concentration 10 μM, 1:3 serial dilution, 8 points, duplicates
JAK1, sequence (P23458 whole entry): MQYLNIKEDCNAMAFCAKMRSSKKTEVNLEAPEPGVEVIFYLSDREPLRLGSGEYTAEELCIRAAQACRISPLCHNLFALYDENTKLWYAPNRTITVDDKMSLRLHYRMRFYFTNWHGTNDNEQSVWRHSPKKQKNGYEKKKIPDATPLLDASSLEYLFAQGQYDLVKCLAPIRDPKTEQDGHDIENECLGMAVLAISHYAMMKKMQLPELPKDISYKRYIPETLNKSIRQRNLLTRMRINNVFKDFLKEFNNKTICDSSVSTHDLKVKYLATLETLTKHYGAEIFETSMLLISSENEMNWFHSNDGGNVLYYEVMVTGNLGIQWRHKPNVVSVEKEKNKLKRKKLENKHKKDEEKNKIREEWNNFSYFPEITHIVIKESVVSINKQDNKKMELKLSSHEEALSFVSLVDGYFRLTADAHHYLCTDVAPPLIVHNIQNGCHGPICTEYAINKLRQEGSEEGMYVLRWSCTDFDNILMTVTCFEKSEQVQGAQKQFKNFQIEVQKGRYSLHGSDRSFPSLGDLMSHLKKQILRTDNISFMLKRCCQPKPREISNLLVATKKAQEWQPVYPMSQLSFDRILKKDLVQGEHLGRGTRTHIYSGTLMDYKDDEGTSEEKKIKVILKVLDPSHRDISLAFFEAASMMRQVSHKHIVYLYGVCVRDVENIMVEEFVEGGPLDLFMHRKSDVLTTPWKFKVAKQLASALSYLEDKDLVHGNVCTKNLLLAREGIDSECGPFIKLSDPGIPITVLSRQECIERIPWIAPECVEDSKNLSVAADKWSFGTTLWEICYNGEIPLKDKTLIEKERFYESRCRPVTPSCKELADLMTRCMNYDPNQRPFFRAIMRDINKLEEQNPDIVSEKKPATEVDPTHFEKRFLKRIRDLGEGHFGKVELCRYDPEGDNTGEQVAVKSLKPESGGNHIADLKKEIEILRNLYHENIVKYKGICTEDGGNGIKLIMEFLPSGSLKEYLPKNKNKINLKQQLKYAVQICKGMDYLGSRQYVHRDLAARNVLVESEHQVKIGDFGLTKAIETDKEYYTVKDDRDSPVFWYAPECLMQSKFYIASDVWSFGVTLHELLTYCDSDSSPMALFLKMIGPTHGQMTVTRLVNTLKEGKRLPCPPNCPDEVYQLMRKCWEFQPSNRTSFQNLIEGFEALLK
Description: as §1, §2, §3, §4, §5

[4] = molecular target: Tyk2 (Homo sapiens, UniProt P29597); experiment: Inhibition of JAK kinase activity, EZ Reader microfluidic phosphorylation of peptide substrate: Tyk2; conditions: Tyk2 kinase 1 nM; highest final concentration 10 μM, 1:3 serial dilution, 8 points, duplicates
Tyk2, sequence (P29597 whole entry): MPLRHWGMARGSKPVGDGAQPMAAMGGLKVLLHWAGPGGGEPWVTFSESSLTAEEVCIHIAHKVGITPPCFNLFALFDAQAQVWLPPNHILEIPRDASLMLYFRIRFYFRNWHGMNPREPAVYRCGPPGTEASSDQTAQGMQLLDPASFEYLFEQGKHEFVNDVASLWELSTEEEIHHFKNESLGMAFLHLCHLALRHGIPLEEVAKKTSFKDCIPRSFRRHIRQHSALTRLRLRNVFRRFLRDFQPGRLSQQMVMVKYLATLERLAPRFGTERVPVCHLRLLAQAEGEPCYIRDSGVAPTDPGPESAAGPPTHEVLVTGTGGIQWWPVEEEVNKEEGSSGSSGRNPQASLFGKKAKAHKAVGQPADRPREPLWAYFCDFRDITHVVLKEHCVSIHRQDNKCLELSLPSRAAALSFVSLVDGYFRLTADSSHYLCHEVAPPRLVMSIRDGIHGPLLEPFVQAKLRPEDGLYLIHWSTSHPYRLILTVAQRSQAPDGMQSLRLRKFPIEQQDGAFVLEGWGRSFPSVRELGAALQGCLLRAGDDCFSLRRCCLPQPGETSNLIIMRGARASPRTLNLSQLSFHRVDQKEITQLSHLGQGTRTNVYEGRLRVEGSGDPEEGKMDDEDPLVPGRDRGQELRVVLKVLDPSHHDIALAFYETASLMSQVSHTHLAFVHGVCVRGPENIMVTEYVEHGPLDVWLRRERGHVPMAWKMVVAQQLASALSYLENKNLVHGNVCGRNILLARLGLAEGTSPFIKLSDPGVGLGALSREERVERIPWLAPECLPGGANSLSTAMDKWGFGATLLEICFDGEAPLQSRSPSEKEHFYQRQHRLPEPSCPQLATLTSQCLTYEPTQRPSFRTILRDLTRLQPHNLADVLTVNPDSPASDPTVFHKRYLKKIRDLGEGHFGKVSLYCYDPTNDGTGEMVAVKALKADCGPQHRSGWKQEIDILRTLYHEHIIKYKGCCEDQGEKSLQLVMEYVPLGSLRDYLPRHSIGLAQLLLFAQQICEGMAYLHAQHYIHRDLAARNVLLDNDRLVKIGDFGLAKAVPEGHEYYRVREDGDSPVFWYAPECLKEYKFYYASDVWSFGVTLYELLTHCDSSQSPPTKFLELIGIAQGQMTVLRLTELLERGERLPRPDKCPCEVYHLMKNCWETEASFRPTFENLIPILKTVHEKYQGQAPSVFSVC
Description: as §1, §2, §3, §4, §5

JAK2, sequence (O60674 whole entry): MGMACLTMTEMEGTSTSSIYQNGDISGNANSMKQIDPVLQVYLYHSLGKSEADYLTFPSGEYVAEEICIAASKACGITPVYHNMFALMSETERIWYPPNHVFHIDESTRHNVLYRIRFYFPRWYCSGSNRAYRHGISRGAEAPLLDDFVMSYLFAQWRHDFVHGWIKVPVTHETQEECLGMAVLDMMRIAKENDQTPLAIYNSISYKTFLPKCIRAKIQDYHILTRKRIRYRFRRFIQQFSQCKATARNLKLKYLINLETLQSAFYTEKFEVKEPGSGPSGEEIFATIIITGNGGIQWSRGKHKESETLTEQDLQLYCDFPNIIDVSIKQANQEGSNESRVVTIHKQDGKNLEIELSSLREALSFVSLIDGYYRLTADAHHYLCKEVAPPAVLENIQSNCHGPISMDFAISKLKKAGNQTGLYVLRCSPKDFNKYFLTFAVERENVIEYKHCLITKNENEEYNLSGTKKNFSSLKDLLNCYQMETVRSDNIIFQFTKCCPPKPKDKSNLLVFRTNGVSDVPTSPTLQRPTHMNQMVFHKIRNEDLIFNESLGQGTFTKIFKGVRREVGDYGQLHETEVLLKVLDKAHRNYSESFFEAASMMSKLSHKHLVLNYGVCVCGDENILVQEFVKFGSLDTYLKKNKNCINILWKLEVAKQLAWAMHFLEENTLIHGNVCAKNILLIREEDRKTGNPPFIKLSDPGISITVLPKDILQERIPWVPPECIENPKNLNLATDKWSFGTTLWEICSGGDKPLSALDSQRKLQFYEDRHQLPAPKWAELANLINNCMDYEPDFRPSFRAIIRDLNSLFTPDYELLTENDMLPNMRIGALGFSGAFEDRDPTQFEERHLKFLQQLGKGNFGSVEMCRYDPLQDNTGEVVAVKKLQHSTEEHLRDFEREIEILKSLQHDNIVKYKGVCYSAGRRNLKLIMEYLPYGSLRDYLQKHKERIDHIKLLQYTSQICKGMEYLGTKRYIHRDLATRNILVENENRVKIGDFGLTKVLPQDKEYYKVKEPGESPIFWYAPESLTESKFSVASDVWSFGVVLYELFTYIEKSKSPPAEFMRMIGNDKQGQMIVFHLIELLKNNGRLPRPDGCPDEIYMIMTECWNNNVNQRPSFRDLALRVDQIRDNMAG

Row | Structure (SMILES) | IC50 [1] | IC50 [2] | IC50 [3] | IC50 [4]
1 | Cn1cc(Nc2cc(-c3cnn(C4CN(C(=O)CC(F)(F)F)C4)c3)ccn2)cn1 [TDM-180636, 3,3,3-trifluoro-1-(3-(4-(2-((1-methyl-1H-pyrazol-4-yl)amino)pyridin-4-yl)-1H-pyrazol-1-yl)azetidin-1-yl)propan-1-one] | ≥ 10 µM | ≥ 10 µM | ≥ 10 µM | ≥ 10 µM
2 | Cn1cc(Nc2cc(-c3cnn(C4CN(C(=O)C5CC5)C4)c3)ccn2)cn1 [TDM-180637, cyclopropyl(3-(4-(2-((1-methyl-1H-pyrazol-4-yl)amino)pyridin-4-yl)-1H-pyrazol-1-yl)azetidin-1-yl)ketone] | ≥ 10 µM | ≥ 10 µM | ≥ 10 µM | ≥ 10 µM
3 | Cn1cc(Nc2cc(-c3cnn(C4CN(C(=O)C5CC5(F)F)C4)c3)ccn2)cn1 (stereo not drawn) [TDM-180638] | ≥ 10 µM | ≥ 10 µM | ≥ 10 µM | ≥ 10 µM
4 | CCC(=O)N1CC(n2cc(-c3ccnc(Nc4cnn(C)c4)c3)cn2)C1 [TDM-180639, 1-(3-(4-(2-((1-methyl-1H-pyrazol-4-yl)amino)pyridin-4-y1)-1H-pyrazol-1-yl)azetidin-1-yl)propan-1-one] | ≥ 10 µM | ≥ 10 µM | ≥ 10 µM | ≥ 10 µM
5 | CCCC(=O)N1CC(n2cc(-c3ccnc(Nc4cnn(C)c4)c3)cn2)C1 [TDM-180640, 1-(3-(4-(2-((1-methyl-1H-pyrazol-4-yl)amino)pyridin-4-yl)-1H-pyrazol-1-yl)azetidin-1-yl)butan-1-one] | ≥ 10 µM | ≥ 10 µM | ≥ 10 µM | ≥ 10 µM
6 | Cn1cc(Nc2cc(-c3cnn(C4CN(C(=O)CC#N)C4)c3)ccn2)cn1 [TDM-180641, 3-(3-(4-(2-((1-methyl-1H-pyrazol-4-yl)amino)pyridin-4-yl)-1H-pyrazol-1-yl)azetidin-1-yl)-3-oxypropionitrile] | ≥ 10 µM | ≥ 10 µM | ≥ 10 µM | ≥ 10 µM
7 | CCS(=O)(=O)N1CC(n2cc(-c3ccnc(Nc4cnn(C)c4)c3)cn2)C1 [TDM-180642, 4-(1-(1-(ethylsulfonyl)azetidin-3-yl)-1H-pyrazol-4-yl)-N-(1-methyl-1H-pyrazol-4-yl) pyridine-2-amine] | ≥ 10 µM | ≥ 10 µM | ≥ 10 µM | ≥ 10 µM
8 | CCCS(=O)(=O)N1CC(n2cc(-c3ccnc(Nc4cnn(C)c4)c3)cn2)C1 [TDM-180643, N-(1-methyl-1H-pyrazol-4-yl)-4-(1-(1-(propylsulfonyl)azetidin-3-yl)-1H-pyrazol-4-yl)pyridine-2-amine] | ≥ 10 µM | ≥ 10 µM | ≥ 10 µM | ≥ 10 µM
9 | Cn1cc(Nc2cc(-c3cnn(C4CN(C(=O)CO)C4)c3)ccn2)cn1 [TDM-180644, 2-hydroxy-1-(3-(4-(2-((1-methyl-1H-pyrazol-4-yl)amino)pyridin-4-yl)-1H-pyrazol-1-yl)azetidin-1-yl)ethan-1-one] | ≥ 10 µM | ≥ 10 µM | ≥ 10 µM | ≥ 10 µM
10 | CC(=O)N1CC(n2cc(-c3ccnc(Nc4cnn(C)c4)c3)cn2)C1 [TDM-180645] | ≥ 10 µM | ≥ 10 µM | ≥ 10 µM | ≥ 10 µM

Other lines, results leading:

Row | IC50 [1] | IC50 [2] | IC50 [3] | IC50 [4] | Structure (SMILES)
11 | ≥ 10 µM | ≥ 10 µM | ≥ 10 µM | ≥ 10 µM | CCC(=O)N1CC(n2cc(-c3ccnc(Nc4cnn(C)c4)n3)cn2)C1 [TDM-180646, 1-(3-(4-(2-((1-methyl-1H-pyrazol-4-yl)amino)pyrimidin-4-yl)-1H-pyrazol-1-yl)azetidin-1-yl)propan-1-one]
12 | 1 to 10 µM | 1 to 10 µM | ≥ 10 µM | ≥ 10 µM | CCS(=O)(=O)N1CCC(n2cc(-c3ccnc(Nc4cnn(C)c4)n3)cn2)C1 (stereo not drawn) [TDM-180647, 4-(1-(1-(ethylsulfonyl)pyrrolidine-3-yl)-1H-pyrazol-4-yl)-N-(1-methyl-1H-pyrazol-4-yl)pyrimidin-2-amine]
13 | 1 to 10 µM | 1 to 10 µM | 1 to 10 µM | 1 to 10 µM | CCCS(=O)(=O)N1CCC(n2cc(-c3ccnc(Nc4cnn(C)c4)n3)cn2)C1 (stereo not drawn) [TDM-180648, N-(1-methyl-1H-pyrazol-4-yl)-4-(1-(1-(propylsulfonyl)pyrrolidine-3-yl)-1H-pyrazol-4-yl)pyrimidin-2-amine]
14 | ≥ 10 µM | ≥ 10 µM | ≥ 10 µM | ≥ 10 µM | CCC(=O)N1CCC(n2cc(-c3ccnc(Nc4cnn(C)c4)n3)cn2)C1 (stereo not drawn) [TDM-180649, 1-(3-(4-(2-((1-methyl-1H-pyrazol-4-yl)amino)pyrimidin-4-yl)-1H-pyrazol-1-yl)pyrrolidin-1-yl)propan-1-one]
15 | ≥ 10 µM | ≥ 10 µM | ≥ 10 µM | ≥ 10 µM | CCCC(=O)N1CCC(n2cc(-c3ccnc(Nc4cnn(C)c4)n3)cn2)C1 (stereo not drawn) [TDM-180650, 1-(3-(4-(2-((1-methyl-1H-pyrazol-4-yl)amino)pyrimidin-4-y1)-1H-pyrazol-1-yl)pyrrolidin-1-yl)butan-1-one]
